Experiments:
Assay type in all cases: in vivo
[1] = Sensory test (limiting method): enhancing the sourness of acid sugar solution; set-up: key: (equivalent citric acid content / citric acid content with flavone) × 100; settings: citric acid 1.000 (g), flavone derivative (I) 0.00001 (g), 8 panellers; for Value of enhancing the sourness Ascending system: ascending system (from low concentration); for Value of enhancing the sourness Descending system: descending system (from high concentration)
Protocol: Compounds 1 to 11 of the flavone derivative (I) were used as a taste modifier to prepare acid sugar solution having compositions as follows:
As a control, 21 types of acid sugar solutions are used. In the control, the flavone derivative (I) is removed from the above composition and the content of citric acid is varied from 1.000 g to 1.500 g by 0.025 g.
Sensory tests were carried out by 8 trained panellers in accordance with a limiting method described in the Hand Book of Sensory evaluation, edited by Research Committee of sensory evaluation, Union of Japanese Scientists and Engineers, p.398 (1973) in use of acid sugar solutions containing respective flavone derivatives (I) and another acid sugar solutions having a various content of citric acid.
As for the content of citric acid, two types sensory tests were conducted, one was an ascending system (testing from solution with low concentration) and another was a descending system (testing from solution with high concentration).
The sensory evaluation was made by a value of enhancing the sourness. The value of enhancing the sourness was calculated by the following formula based on the content of citric acid in acid sugar solutions with varied concentration of citric acid, which has an equivalent stimulation with an acid sugar solution containing the flavone derivative (I) Value of enhancing the sourness = (content of citric acid in acid sugar solution sensed as an equivalent stimulation/content of citric acid in acid sugar solution containing the flavone derivative (I)) x 100 [formula]

[2] = Sensory test: body and deliciousness (casing boiled fish paste); settings: 0.0001 (g) Compound 11, 8 panellers
Protocol: Compound 11 of the flavone derivative (I) was used as a taste modifier. Ground fish meat, salt, starch, water and the flavone derivative (I) were mixed. In accordance with a general method, casing boiled fish paste containing the flavone derivative (I) was prepared. Alternatively, flavone derivative (I) free casing boiled fish paste was prepared by the same method as a control.
Sensory tests for obtained casing boiled fish paste were conducted by 8 panellers comprised of 6 males and 2 females at the age from 20 to 40.

[3] = Sensory test: refreshness, its continuity and quality of taste (refreshing drink); settings: 0.2 g flavor composition H (0.000001(g) Compound 11) vs G, 8 panellers
Protocol: Compound 11 of the flavone derivative (I) was used as a taste modifier. Refreshing drink containing the above flavor composition G (control) or H (containing the flavone derivative (I)) was prepared.
First, 10 g of fructose/glucose sugar solution, 0.1 g of citric acid (crystal), 0.2 g of the flavor composition G and 88.5 g of water were mixed to dissolve, followed by heating up to 93 °C, immediately transmitted to a bottle and sealed. Then, it was cooled in water, thereby preparing flavone derivative (I) free refreshing drink.
Alternatively, flavone derivative (I)-containing refreshing drink was prepared by the same method using the flavor composition H instead of the flavor composition G.
Sensory tests for obtained refreshing drink were carried out by 8 panellers comprised of 6 males and 2 females at the age from 20 to 40.

[4] = Sensory test: sweetness and savor (ice cream); settings: 0.00001 w/w%, 10 panellers
Protocol: Compound 2 of the flavone derivative (I) was used as a taste modifier. Ice cream containing 5 w/w% of sugar, 12 w/w% of fructose condensed milk and 10 w/w% of thick malt syrup as sweetening agents was used as a control. The control and ice cream containing 0.00001 w/w% of the flavone derivative (I) were made by a general method. Sensory tests for the sweetness and the savor were conducted by 10 trained panellers comprised of 6 males and 4 females at the age from 20 to 40.

[5] = Sensory test: stimulative smell associated with acetic acid and viscosity (toothpaste with karaya gum); settings: 0.0000001 part by weight of Compound 3 to 1 part, 9 panellers
Protocol: Sorbitol was heated to 70°C, followed by adding sodium saccharine and silica slowly thereto and by stirring well. Then, water previously heated to 70°C, karaya gum, sodium lauryl sulfate and sodium hydroxide were added sequentially while stirring. Finally, flavor was added thereto to prepare toothpaste as a control. Alternatively, flavone derivative (I)-containing toothpaste was prepared by adding 0.0000001 part by weight of Compound 3 of the flavone derivative (I) to 1 part by weight of similarly prepared toothpaste.
Sensory tests for obtained toothpaste were conducted by 9 panellers comprised of 6 males and 3 females.

[6] = Five points evaluation test: saltiness and brackish taste modifying effect, salt / sodium L-glutamate solution; settings: average points of 5 panellers (2: no changes); for Saltiness Modifying Effect: Salt
Protocol: Compound 3 of the flavone derivative (I) was used as a taste modifier. […] Alternatively, sample solutions were prepared by adding 1, 0.1, 0.01 ppm of Compound 3 to the standard solutions, respectively.
Sensory tests were conducted by 5 trained panellers to examine saltiness modifying effect (so called saltiness adapting effect) and brackish taste modifying effect.
(§1) Each sample solution was evaluated assuming that the standard solution has the point of 2.

[7] = Sensory test: sweetness and savor (sponge cake); settings: 22 w/w% white sugar, 0.0001 w/w%, 10 panellers
Protocol: Compound 4 of the flavone derivative (I) was used as a taste modifier and 22 w/w% of white sugar was used as a sweetening agent. In accordance with a general method, sponge cake containing 0.0001 w/w% of the flavone derivative (I) and flavone derivative (I) free sponge cake were prepared. Sensory tests for the sweetness and the savor were conducted by 10 panellers comprised of 6 males and 4 females at the age from 20 to 40.

[8] = Sensory test: enhancing the sourness (refreshing drink); settings: 0.0002 (g) Compound 4, vs control, 8 panellers
Protocol: Compound 4 of the flavone derivative (I) was used as a taste modifier. Raw materials described below were mixed and stirred to dissolve. The solution was heated up to 93°C, immediately transmitted to a bottle and sealed. Then, it was cooled in water, thereby preparing refreshing drink having compositions as follows. A control was prepared by eliminating the compound 4 from the raw materials.
Sensory tests of obtained refreshing drink were carried out by 8 panellers.

[9] = Sensory test: savor (boiled fish paste); settings: 1.5 w/w% glycine, 0.0001 w/w%, 10 panellers
Protocol: Compound 7 of the flavone derivative (I) was used as a taste modifier. In accordance with a general method, boiled fish paste containing 0.0001 w/w% of the flavone derivative (I) and flavone derivative (I) free boiled fish paste were prepared in use of 1.5 w/w% glycine. Sensory tests for the savor were conducted by 10 panellers comprised of 6 males and 4 females at the age from 20 to 40.

[10] = Five points evaluation test: saltiness and savor modifying effect (toothpaste containing salt); settings: average points of 5 panellers (2: no changes)
Protocol: Compound 7 of the flavone derivative (I) was used as a taste modifier. To commercially available toothpaste (containing salt), the flavone derivative (I) was added in the amount of 1, 0.1 and 0.01 ppm respectively to prepare samples. Sensory tests were carried out for modifying effects of the saltiness and the savor of toothpaste. Flavone derivative (I) free toothpaste was used as a standard substance.
The sensory tests were conducted by 5 trained panellers to examine saltiness modifying effect (so called saltiness adapting effect) and savor modifying effect.
as §1

[11] = Sensory test: stimulative smell associated with acetic acid (mayonnaise); settings: 0.001 mg of Compound 8 added, 9 panellers
Protocol: Compound 8 of the flavone derivative (I) was used as a taste modifier. First, sugar, sodium glutamate and carrageenan were dissolved in water, followed by adding raw vinegar, salt and yolk. Then, corn salad oil was added portionwise while stirring, and emulsified by the use of colloid mill, thereby preparing mayonnaise as a control. Alternatively, flavone derivative (I)-containing mayonnaise was prepared by adding 0.001 mg of Compound 8 to mayonnaise that was similarly prepared.
Sensory tests for obtained mayonnaise were conducted by 9 panellers comprised of 6 males and 3 females.

Molecule: 3,3',4',5,5',6,7,8-octamethoxyflavone [Compound 11]
- Value of enhancing the sourness Ascending system [1]: 125
- Value of enhancing the sourness Descending system [1]: 128
- Body: Those who sensed no difference [2]: 2 number of people
- Body: Those who sensed the flavone derivative (I) additive is better [2]: 6 number of people
- Deliciousness: Those who sensed no difference [2]: 1 number of people
- Deliciousness: Those who sensed the flavone derivative (I) additive is better [2]: 7 number of people
- Quality of taste: Those who sensed no difference [2]: 1 number of people
- Quality of taste: Those who sensed the flavone derivative (I) additive is better [2]: 7 number of people
- Continuity of refreshness: Those who sensed H additive is better [3]: 8 number of people
- Continuity of refreshness: Those who sensed no difference [3]: 0 number of people
- Quality of taste: Those who sensed H additive is better [3]: 6 number of people
- Quality of taste: Those who sensed no difference [3]: 2 number of people
- Refreshness: Those who sensed H additive is better [3]: 7 number of people
- Refreshness: Those who sensed no difference [3]: 1 number of people

Molecule: COc1ccc(-c2cc(=O)c3c(OC)c(OC)c(OC)c(OC)c3o2)cc1OC [Compound 2, 3',4',5,6,7,8-hexamethoxyflavone]
- Value of enhancing the sourness Ascending system [1]: 118
- Value of enhancing the sourness Descending system [1]: 123
- the sweetness and the savor, as sensed by all the panellers [4]: better than that of the control

Molecule: COc1ccc(-c2cc(=O)c3c(OC)c(OC)c(OC)c(OC)c3o2)cc1 [Compound 3, 4',5,6,7,8-pentamethoxyflavone]
- Stimulative smell: Those who sensed no difference [5]: 1 number of people
- Stimulative smell: Those who sensed the flavone derivative (I) additive is reduced [5]: 8 number of people
- Value of enhancing the sourness Ascending system [1]: 120
- Value of enhancing the sourness Descending system [1]: 123
- Brackish Taste Modifying Effect ([6]; 0.01 ppm, Salt 1 %): 3.6
- Brackish Taste Modifying Effect ([6]; 0.01 ppm, Salt 3 %): 3.6
- Brackish Taste Modifying Effect ([6]; 0.01 ppm, Salt 5 %): 3.4
- Brackish Taste Modifying Effect ([6]; 0.01 ppm, Salt 10 %): 3.0
- Saltiness Modifying Effect ([6]; 0.01 ppm, sodium L-glutamate 1 %): 3.6
- Saltiness Modifying Effect ([6]; 0.01 ppm, sodium L-glutamate 3 %): 3.8
- Saltiness Modifying Effect ([6]; 0.01 ppm, sodium L-glutamate 5 %): 3.4
- Saltiness Modifying Effect ([6]; 0.01 ppm, sodium L-glutamate 10 %): 3.0
- Brackish Taste Modifying Effect ([6]; 0.10 ppm, Salt 1 %): 4.0
- Brackish Taste Modifying Effect ([6]; 0.10 ppm, Salt 3 %): 3.8
- Brackish Taste Modifying Effect ([6]; 0.10 ppm, Salt 5 %): 3.6
- Brackish Taste Modifying Effect ([6]; 0.10 ppm, Salt 10 %): 3.4
- Saltiness Modifying Effect ([6]; 0.10 ppm, sodium L-glutamate 1 %): 4.0
- Saltiness Modifying Effect ([6]; 0.10 ppm, sodium L-glutamate 3 %): 3.8
- Saltiness Modifying Effect ([6]; 0.10 ppm, sodium L-glutamate 5 %): 3.6
- Saltiness Modifying Effect ([6]; 0.10 ppm, sodium L-glutamate 10 %): 3.4
- Brackish Taste Modifying Effect ([6]; 1.00 ppm, Salt 1 %): 4.4
- Brackish Taste Modifying Effect ([6]; 1.00 ppm, Salt 3 %): 4.0
- Brackish Taste Modifying Effect ([6]; 1.00 ppm, Salt 5 %): 4.0
- Brackish Taste Modifying Effect ([6]; 1.00 ppm, Salt 10 %): 3.8
- Saltiness Modifying Effect ([6]; 1.00 ppm, sodium L-glutamate 1 %): 4.4
- Saltiness Modifying Effect ([6]; 1.00 ppm, sodium L-glutamate 3 %): 4.0
- Saltiness Modifying Effect ([6]; 1.00 ppm, sodium L-glutamate 5 %): 4.0
- Saltiness Modifying Effect ([6]; 1.00 ppm, sodium L-glutamate 10 %): 3.8

Molecule: COc1ccc(-c2cc(=O)c3c(OC)cc(OC)c(OC)c3o2)cc1OC [Compound 4, 3',4',5,7,8-pentamethoxyflavone]
- the sweetness and the savor, as sensed by all the panellers [7]: better than that of the control
- Value of enhancing the sourness Ascending system [1]: 117
- Value of enhancing the sourness Descending system [1]: 119
- quality of taste [8]: significantly improved
- taste of fruit juice and the sourness [8]: stronger than the control

Molecule: COc1ccc(-c2oc3c(OC)c(OC)cc(OC)c3c(=O)c2OC)cc1OC [Compound 7, 3,3',4',5,7,8-hexamethoxyflavone]
- Value of enhancing the sourness Ascending system [1]: 116
- Value of enhancing the sourness Descending system [1]: 119
- the savor, as sensed by all the panellers [9]: better than that of the control
- Saltiness and Savor Modifying Effect: Saltiness ([10]; 0.01 ppm): 2.2
- Saltiness and Savor Modifying Effect: Savor ([10]; 0.01 ppm): 2.2
- Saltiness and Savor Modifying Effect: Saltiness ([10]; 0.10 ppm): 2.6
- Saltiness and Savor Modifying Effect: Savor ([10]; 0.10 ppm): 2.4
- Saltiness and Savor Modifying Effect: Saltiness ([10]; 1.00 ppm): 3.4
- Saltiness and Savor Modifying Effect: Savor ([10]; 1.00 ppm): 3.0

Molecule: COc1ccc(-c2cc(=O)c3c(OC)cc(OC)cc3o2)cc1 [Compound 8, 4',5,7-trimethoxyflavone]
- Value of enhancing the sourness Ascending system [1]: 118
- Value of enhancing the sourness Descending system [1]: 120
- Stimulative smell: Those who sensed difference exists [11]: 7 number of people
- Stimulative smell: Those who sensed no difference [11]: 2 number of people

— patent publication EP0605261B1, “Use of a flavone derivative as taste modifier and a method of modifying taste” (SAN-EI GEN F.F.I., INC., priority 1992, dated 1994)
